As a reminder, the inhibition is the drop in the measured response relative to a control, in per cent.

The test system of series [1] is PV1/Sabin. The series is classed as cell-based, polio virus type 1. To be noted: PV1/Sabin, peptide 25 μg/ml, day 5.
Series [2] concerns HSV-1 TK^− virus. The series can be described thus: microbe, parasite or virus in culture. The series is classed as cell-based, Herpes Virus Simplex type I. The following applies: for CPE inhibition (AI): HSV1 TK^−; for inhibition of the CPE effect, in words: HSV-1 TK^−.
Series [3] concerns HSV-1 TK^+ virus. Nature of the series: microbe, parasite or virus in culture. The series is classed as cell-based, Herpes Virus Simplex type I.
Series [4] concerns PV1/Mahoney. The series is classed as cell-based, polio virus type 1. The following applies: peptide 25 μg/ml, day 5.
Series [5] relates to Vero cells. Nature of the series: Toxicity reference: non infected treated Vero cells (Neutral Red OD). The series is classed as cell-based, monkey. The protocol: The CPE inhibition test is a semi-quantitative test which measures the % survival of the cells. The following protocol was followed: Vero cells were trypsinised (trypsin-versene, Eurobio), distributed in flat bottomed 96-well plates (Falcon) in an amount of […] per well, in 50 μl of DMEM medium (Bioproducts) supplemented with antibiotics, L-glutamine and 5% FCS (Eurobio), then incubated for 24 hours. The peptide/antibodies, sterilised on a […] filter, were added in an amount of […] using the following schedule: • H−24: cells into culture; • H−0: infection; • H−2, H−1, H0, H+1: add peptides; • H+48: CPE test.
48 hours after infection, the medium was removed and the wells were washed 3 times with 200 μl of sterile PBS buffer containing Ca^2+ and Mg^2+, so as to eliminate dead cells. Neutral Red (RAL, 0.3%) was added (100 μl/well) and the cells were incubated for 2 more hours. The cells were then washed 3 times as described above to eliminate colorant which had not been incorporated into the cells. The cells were then exploded by adding 100 μl of 1% SDS in distilled water. After 1 hour at 4° C. to completely leach out the Neutral Red, the crystals were dissolved with a pipette. Air bubbles were destroyed by a current of hot air (hair dryer) and the plates were read, using a microplate reader at 570 nm using a 630 nm reference filter. The optical density blank was air.
The following controls were used: • Reference cells: non infected and non treated, incubated with Neutral Red; • Reference virus: infected cells with different dilutions of a factor of 2 of virus, from 100% CPE (dilution 1/1) to 12.5% CPE (1/8 dilution); • Antiviral reference: cells treated with acyclovir and infected; and • Toxicity reference: non infected cells, treated with different peptides/antibodies.

The mark [6] stands for this setting: HSV1 TK^+, added H + 1, 5 μ/well.
Setting [7] is: HSV1 TK^+, added H − 1, 5 μ/well.
Setting [8] is: HSV1 TK^+, added H − 2, 5 μ/well.
Setting [9] is: Human alphaherpesvirus 1, Vero, read-out: CPE inhibition (antiviral activity).

For the compound “(K)19-AISRGGGYSYYLDTVKRTARATWDWFAY (KKKKKKKKKKKKKKKKKKKAISRGGGYSYYLDTVKRTARATWDWFAY) [K19PC2.1]”, the “LOG (TITER/ML)” value in series [1] is 8.6; in series [4] it was 9.05. For the same compound, the “TITER REDUCTION FACTOR” value came to 8 in series [1] and 4 in series [4]. In addition, the “CPE inhibition (AI)” value in series [2] (added H0, 5 μ/well) amounted to 81; in series [2] (added H0, 10 μ/well), 92; in series [2] (added H + 1, 5 μ/well) it was 26; in series [2] (added H − 1, 5 μ/well) it was 72; in series [2] (added H − 2, 5 μ/well), 100; in series [3] (HSV1 TK^+, added H0, 5 μ/well), 69. The results for the “CPE inhibition (AI)” value in series [3] (setting [6]), in series [3] (setting [7]) and in series [3] (setting [8]) were 37, 8 and 1, respectively.

“(K)19-VAYISRGGGIFYYQDSIKGRFTREKYGKRGMDY (KKKKKKKKKKKKKKKKKKKVAYISRGGGIFYYQDSIKGRFTREKYGKRGMDY) [K19pJ20-8]”: the “LOG (TITER/ML)” value was found to be 8.6 in series [1] and 8.9 in series [4]. Moreover, the “TITER REDUCTION FACTOR” value was found to be 8 in series [1] and 6 in series [4]. The “CPE inhibition (AI)” value in series [2] (added H0, 5 μ/well) amounted to 38; in series [2] (added H0, 10 μ/well), 56; in series [2] (added H0, 20 μ/well) it was 86; in series [2] (added H + 1, 5 μ/well), 1; in series [2] (added H + 1, 10 μ/well) it was 3; in series [2] (added H + 1, 20 μ/well), 11. The “CPE inhibition (AI)” value worked out at 29 in series [2] (added H − 1, 5 μ/well); 49 in series [2] (added H − 1, 10 μ/well); 100 in series [2] (added H − 1, 20 μ/well); 55 in series [2] (added H − 2, 5 μ/well); 46 in series [2] (added H − 2, 10 μ/well); 0 in series [2] (added H − 2, 20 μ/well). The “CPE inhibition (AI)” value in series [3] (HSV1 TK^+, added H0, 5 μ/well) came out at 37; in series [3] (HSV1 TK^+, added H0, 10 μ/well), 71; in series [3] (HSV1 TK^+, added H0, 20 μ/well), 86; in series [3] (setting [6]) it was 0; in series [3] (HSV1 TK^+, added H + 1, 10 μ/well) it was 1; in series [3] (HSV1 TK^+, added H + 1, 20 μ/well), 0. The “CPE inhibition (AI)” value in series [3] (setting [7]) turned out to be 27; in series [3] (HSV1 TK^+, added H − 1, 10 μ/well) it was 74; in series [3] (HSV1 TK^+, added H − 1, 20 μ/well) it was 89; in series [3] (setting [8]), 1; in series [3] (HSV1 TK^+, added H − 2, 10 μ/well), 44; in series [3] (HSV1 TK^+, added H − 2, 20 μ/well), 78. For the same compound, the “inhibition of the CPE effect, in words” value in series [2] and in series [3] (HSV-1 TK^+) was “very active against the two viral strains” throughout.

`Nc1nc2c(ncn2COCCO)c(=O)[nH]1` [ACYCLOVIR ®, Acyclovir, reference compound]: the “inhibition of the CPE effect, in words” value in series [2] is on record as “no effect”. In addition, the inhibition at 1 µM in series [2] (setting [9]) worked out at 0%; in series [3] (Human alphaherpesvirus 1, Vero, 10^−6 M, HSV1 TK^+, read-out: CPE inhibition (antiviral activity)), 9%. The inhibition at 10 µM in series [2] (setting [9]) stood at 0%; in series [3] (Human alphaherpesvirus 1, Vero, 10^−5 M, HSV1 TK^+, read-out: CPE inhibition (antiviral activity)) it was 7%. The inhibition at 100 µM in series [2] (setting [9]) stood at 0%; in series [3] (Human alphaherpesvirus 1, Vero, 10^−4 M, HSV1 TK^+, read-out: CPE inhibition (antiviral activity)), 49%. In addition, the inhibition at 1000 µM in series [2] (setting [9]) came to 0%; in series [3] (Human alphaherpesvirus 1, Vero, 10^−3 M, HSV1 TK^+, read-out: CPE inhibition (antiviral activity)), 62%. In addition, the “optical density, non infected cells” value came out at 0.909 ± 0.016 in series [5] (10^−3 M /0, column HSV1 TK^+); 0.789 ± 0.160 in series [5] (10^−3 M /0, column HSV1 TK^−); 1.027 ± 0.042 in series [5] (10^−4 M /0, column HSV1 TK^+); 0.834 ± 0.086 in series [5] (10^−4 M /0, column HSV1 TK^−); 0.975 ± 0.093 in series [5] (10^−5 M /0, column HSV1 TK^+); 0.869 ± 0.053 in series [5] (10^−5 M /0, column HSV1 TK^−). Besides, the “optical density, non infected cells” value in series [5] (10^−6 M /0, column HSV1 TK^+) was 0.960 ± 0.025; in series [5] (10^−6 M /0, column HSV1 TK^−) it was 0.816 ± 0.001.

(Values after patent US7628987B2, “Vectors derived from antibodies for transferring substances into cells” (Institut Pasteur, priority 1997, dated 2009).)
